For 13 compounds, IC50 and Activity results are on record in ChEMBL document CHEMBL3399963, “Design, synthesis and preliminary biological evaluation of C-8 substituted guanine derivatives as small molecular inhibitors of FGFRs” (Bioorg Med Chem Lett, 2015).

SMILES strings stand for the structures. Some results are limits rather than exact numbers.

Data set [1] can be described thus: Cytotoxicity against human HeLa 229 cells after 72 hrs by MTT assay. The following applies: HeLa 229, 72 h.
Data set [2] can be described thus: Cytotoxicity against human HL7702 cells after 72 hrs by MTT assay. Conditions: L02, 72 h. (In general: Tetrazolium dyes change colour on reduction, which living cells bring about.)
The target of data set [3] is T1, Fibroblast growth factor receptor 4 (Homo sapiens, UniProt P22455). The data set is described as follows: Inhibition of FGFR4 (unknown origin) after 90 mins by TR-FRET assay. In general terms: TR-FRET usually uses a lanthanide donor and a delayed reading to cut background.
The target of data set [4] is T1, Fibroblast growth factor receptor 4. The data set is described as follows: Inhibition of FGFR4 (unknown origin).
The nature of data set [5]: Cytotoxicity against mouse B16F10 cells after 72 hrs by MTT assay. Conditions: B16-F10, 72 h.
Data set [6] concerns A549. The data set is described as follows: Cytotoxicity against human A549 cells after 72 hrs by MTT assay. The following applies: A549, 72 h.
Data set [7] has as its target Fibroblast growth factor receptor 3 (Homo sapiens, UniProt P22607). The data set is described as follows: Inhibition of FGFR3 (unknown origin) after 90 mins by TR-FRET assay.
Data set [8] can be described thus: Cytotoxicity against human HL7702 cells assessed as cell survival at 2 to 10 uM after 72 hrs by MTT assay. In kind it is cell-based. The following applies: l02, 72 h.
Data set [9] deals with Fibroblast growth factor receptor 1 (Homo sapiens, UniProt P11362).
Description: Inhibition of FGFR1 (unknown origin) after 90 mins by TR-FRET assay
In data set [10] the target is Fibroblast growth factor receptor 2 (Homo sapiens, UniProt P21802). The data set is described as follows: Inhibition of FGFR2 (unknown origin) after 90 mins by TR-FRET assay.
Fibroblast growth factor receptor 2, sequence (P21802 whole entry): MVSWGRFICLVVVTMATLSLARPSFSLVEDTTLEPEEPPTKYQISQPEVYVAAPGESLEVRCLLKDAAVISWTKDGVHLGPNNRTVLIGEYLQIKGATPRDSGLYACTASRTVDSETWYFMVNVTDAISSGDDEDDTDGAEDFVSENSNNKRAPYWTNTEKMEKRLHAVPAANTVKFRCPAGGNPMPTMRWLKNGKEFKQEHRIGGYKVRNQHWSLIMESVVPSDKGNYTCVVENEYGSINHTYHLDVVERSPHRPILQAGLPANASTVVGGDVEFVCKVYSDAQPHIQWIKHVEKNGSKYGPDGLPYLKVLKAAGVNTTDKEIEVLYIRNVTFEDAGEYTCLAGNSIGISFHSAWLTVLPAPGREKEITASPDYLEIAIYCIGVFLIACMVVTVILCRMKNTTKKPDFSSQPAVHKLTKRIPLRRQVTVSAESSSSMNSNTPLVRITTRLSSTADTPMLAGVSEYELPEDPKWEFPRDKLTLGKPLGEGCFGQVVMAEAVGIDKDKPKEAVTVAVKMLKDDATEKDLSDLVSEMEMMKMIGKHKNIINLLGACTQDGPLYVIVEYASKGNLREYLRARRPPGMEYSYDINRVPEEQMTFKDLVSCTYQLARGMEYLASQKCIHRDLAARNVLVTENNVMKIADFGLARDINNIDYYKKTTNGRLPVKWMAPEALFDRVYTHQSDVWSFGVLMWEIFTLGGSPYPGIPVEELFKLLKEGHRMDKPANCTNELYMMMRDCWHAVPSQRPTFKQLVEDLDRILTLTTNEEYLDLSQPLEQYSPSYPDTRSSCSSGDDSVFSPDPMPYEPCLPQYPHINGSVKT

Fibroblast growth factor receptor 3, sequence (P22607 whole entry): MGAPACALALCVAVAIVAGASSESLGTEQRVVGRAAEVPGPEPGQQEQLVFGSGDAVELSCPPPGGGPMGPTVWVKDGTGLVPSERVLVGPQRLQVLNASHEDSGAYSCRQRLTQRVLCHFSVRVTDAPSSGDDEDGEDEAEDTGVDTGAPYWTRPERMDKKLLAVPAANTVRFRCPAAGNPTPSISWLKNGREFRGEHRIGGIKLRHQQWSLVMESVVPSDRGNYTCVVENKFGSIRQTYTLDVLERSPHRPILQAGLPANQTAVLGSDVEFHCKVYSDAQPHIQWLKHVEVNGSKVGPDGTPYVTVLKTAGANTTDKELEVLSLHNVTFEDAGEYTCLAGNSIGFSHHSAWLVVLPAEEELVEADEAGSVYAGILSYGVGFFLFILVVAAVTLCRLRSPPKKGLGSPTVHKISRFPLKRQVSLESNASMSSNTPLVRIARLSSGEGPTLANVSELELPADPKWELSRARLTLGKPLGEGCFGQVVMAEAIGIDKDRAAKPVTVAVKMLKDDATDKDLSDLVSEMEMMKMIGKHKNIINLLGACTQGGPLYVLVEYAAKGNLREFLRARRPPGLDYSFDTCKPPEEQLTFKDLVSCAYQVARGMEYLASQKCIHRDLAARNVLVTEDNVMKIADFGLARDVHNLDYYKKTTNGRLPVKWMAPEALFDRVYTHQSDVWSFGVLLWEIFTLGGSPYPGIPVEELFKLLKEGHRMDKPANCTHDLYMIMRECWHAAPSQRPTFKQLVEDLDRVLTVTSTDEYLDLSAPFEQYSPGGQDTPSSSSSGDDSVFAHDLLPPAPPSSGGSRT
T1 sequence (P22455 whole entry): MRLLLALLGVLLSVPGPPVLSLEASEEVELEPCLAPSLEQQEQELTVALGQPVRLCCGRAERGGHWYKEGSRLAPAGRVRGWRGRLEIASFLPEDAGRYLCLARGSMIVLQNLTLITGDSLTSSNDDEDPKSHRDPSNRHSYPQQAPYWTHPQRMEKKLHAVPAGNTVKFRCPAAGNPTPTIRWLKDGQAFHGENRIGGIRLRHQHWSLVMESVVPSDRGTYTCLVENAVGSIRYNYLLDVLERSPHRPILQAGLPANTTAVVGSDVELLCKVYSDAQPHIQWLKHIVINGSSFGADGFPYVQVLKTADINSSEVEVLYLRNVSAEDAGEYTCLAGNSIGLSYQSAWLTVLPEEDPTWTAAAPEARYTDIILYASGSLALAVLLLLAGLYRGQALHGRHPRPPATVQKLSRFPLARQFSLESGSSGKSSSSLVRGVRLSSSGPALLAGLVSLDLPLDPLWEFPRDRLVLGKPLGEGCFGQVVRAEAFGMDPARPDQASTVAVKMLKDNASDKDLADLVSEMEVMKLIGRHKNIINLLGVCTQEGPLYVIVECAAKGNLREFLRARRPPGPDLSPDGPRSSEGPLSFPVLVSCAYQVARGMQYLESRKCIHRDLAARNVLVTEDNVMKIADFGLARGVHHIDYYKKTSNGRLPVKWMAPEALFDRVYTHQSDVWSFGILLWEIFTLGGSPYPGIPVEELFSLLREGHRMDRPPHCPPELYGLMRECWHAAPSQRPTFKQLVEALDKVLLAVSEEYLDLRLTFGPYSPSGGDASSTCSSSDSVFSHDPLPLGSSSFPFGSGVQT
Fibroblast growth factor receptor 1, sequence (P11362 whole entry): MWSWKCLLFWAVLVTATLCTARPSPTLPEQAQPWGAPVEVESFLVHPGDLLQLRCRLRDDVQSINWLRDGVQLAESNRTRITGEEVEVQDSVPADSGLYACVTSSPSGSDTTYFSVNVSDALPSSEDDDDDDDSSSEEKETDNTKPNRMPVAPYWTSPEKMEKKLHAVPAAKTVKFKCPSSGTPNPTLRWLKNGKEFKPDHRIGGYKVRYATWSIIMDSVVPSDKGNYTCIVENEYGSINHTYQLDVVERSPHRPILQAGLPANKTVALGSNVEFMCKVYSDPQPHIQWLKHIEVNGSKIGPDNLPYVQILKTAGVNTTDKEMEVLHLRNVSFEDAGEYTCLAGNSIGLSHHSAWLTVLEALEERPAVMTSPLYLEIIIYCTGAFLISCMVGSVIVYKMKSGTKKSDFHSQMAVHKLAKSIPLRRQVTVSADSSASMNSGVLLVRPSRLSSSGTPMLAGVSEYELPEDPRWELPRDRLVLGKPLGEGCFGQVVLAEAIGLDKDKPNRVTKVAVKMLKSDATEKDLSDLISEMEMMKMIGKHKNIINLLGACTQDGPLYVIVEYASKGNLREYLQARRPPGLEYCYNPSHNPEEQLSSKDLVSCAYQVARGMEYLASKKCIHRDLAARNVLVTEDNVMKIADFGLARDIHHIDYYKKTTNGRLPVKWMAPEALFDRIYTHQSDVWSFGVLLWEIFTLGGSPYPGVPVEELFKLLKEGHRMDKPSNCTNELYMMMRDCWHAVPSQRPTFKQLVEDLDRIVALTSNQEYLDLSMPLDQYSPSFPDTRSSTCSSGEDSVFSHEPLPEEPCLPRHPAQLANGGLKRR

For orientation: IC50 means the concentration that gives 50% inhibition. Lower therefore signals higher potency. On to `CN1CCN(c2ccc(-c3nc4c(N5CCN(CC(=O)Nc6nccs6)CC5)c(Cl)cnc4[nH]3)cc2)CC1`, for which the IC50 in data set [1] was 4.37 µM; in data set [2], 27.6 µM; in [3], 0.13 µM; in data set [4], 0.02 µM; in [5] it was 1.61 µM; in data set [6], 2.59 µM.

Take `Nc1nc(O)c2nc(-c3ccccc3)[nH]c2n1`: the IC50 in data set [7] and in data set [3] was more than 20 µM each time.

Consider `COc1ccccc1-c1nc2c(O)nc(N)nc2[nH]1`, for which the 50% inhibitory concentration (IC50) in [7] and in data set [3] was more than 20 µM each time.

With `Cc1ccc(-c2nc3c(O)nc(N)nc3[nH]2)c(C)c1`, the IC50 in data set [7] and in data set [3] was more than 20 µM throughout.

For `Nc1nc(O)c2nc(-c3c[nH]c4ccccc34)[nH]c2n1`, the IC50 in [7] is more than 20 µM; in data set [1], 15.4 µM; in data set [2], 47 µM; in data set [3] it was more than 20 µM; in data set [5], 10.3 µM; in data set [6] it was 10.4 µM.

Take `CC(=O)Nc1nc(O)c2nc(-c3ccccc3)[nH]c2n1`: the IC50 in data set [7] and in data set [3] was more than 20 µM throughout.

Take `COc1ccccc1-c1nc2c(O)nc(NC(C)=O)nc2[nH]1`: the IC50 in [7] and in data set [3] was more than 20 µM in each case.

For `COc1cccc(-c2nc3c(O)nc(NC(C)=O)nc3[nH]2)c1OC`, the IC50 was more than 20 µM in [7]; 10.5 µM in [1]; 50 µM in data set [2]; more than 20 µM in data set [3]; 10.8 µM in [5]; 11.9 µM in [6].

In data set [3], `CC(=O)Nc1nc(O)c2nc(-c3ccc(C)cc3C)[nH]c2n1` returned an IC50 of more than 20 µM.

Take `CC(=O)Nc1nc(O)c2nc(-c3c[nH]c4ccccc34)[nH]c2n1`: the IC50 in [1] is 10.8 µM; in data set [2] it was 47.7 µM; in data set [3], more than 20 µM; in [5], 8.96 µM; in data set [6] it was 9.39 µM.

For the compound `CC(=O)Nc1nc(O)c2nc(-c3c[nH]c4cccc(Br)c34)[nH]c2n1`, the Activity result in data set [8] is recorded as “Non-toxic”. Also, the IC50 in data set [1] was 9.72 µM; in [2], 46.6 µM; in [3], more than 20 µM; in data set [5], 6.59 µM; in data set [6], 8.28 µM.

For the compound `CC(C)(C)NC(=O)Nc1nc2nc(N)ncc2cc1-c1c(Cl)cccc1Cl`, the IC50 in [9] turned out to be 0.11 µM; in data set [7] it was 0.29 µM; in data set [1], 3.87 µM; in data set [10] it was 0.13 µM; in [2], 28.4 µM; in data set [3], 0.56 µM. The IC50 came out at 2.62 µM in data set [5] and 4.34 µM in data set [6].

With `COc1cc(CCc2cc(NC(=O)c3ccc(N4C[C@@H](C)N[C@@H](C)C4)cc3)n[nH]2)cc(OC)c1` [FEXAGRATINIB], the Activity result in data set [8] is reported as “Non-toxic”. The IC50 in data set [1] was determined as 0.14 µM; in data set [2] it was 18.2 µM; in data set [5], 0.051 µM; in data set [6], 0.062 µM.
